Data reported in patent publication US20230021442A1, “PHENOTHIAZINE FERROPTOSIS INHIBITOR, PREPARATION METHOD THEREFOR AND APPLICATION THEREOF” (CHENGDU HENGHAO INNOVATIVE SCIENCE AND TECHNOLOGY CO., LTD., priority 2019, published 2023).

System: fibrosarcoma cell line
Experiment: screening model for ferroptosis, MTT cell viability assay with ferroptosis inducer Erastin
Format: cell-based
Conditions: Erastin 10 μM; 72 h; average of three tests
Experimental: In this example, in order to study the inhibitor of ferroptosis, a screening model for ferroptosis was constructed in house, and the details are as follows:
The screening model for ferroptosis mainly used the MTT cell viability assay. First, the fibrosarcoma cell line was cultured in a dish, and the cells in the logarithmic growth phase were seeded in a 96-well plate in specific numbers (3000-10000 cells/well), 100 μL per well, and then cultured in an incubator at 37° C. and 5% CO2 to allow the cells to adhere. After 24 h, 100 μL of compounds at certain concentrations prepared in the indicated medium and the ferroptosis inducer Erastin (final concentration of 10 μM) were added, and wells in triplicate were set up for each compound to ensure the accuracy of the results. A negative control group, positive control group (5 μM of ferrostain-1), blank control group and solvent control group were also set. After dosing, cells were placed in the incubator and cultured for 72h. […] The next day, the absorbance value at 570 nm was detected with a microplate reader to calculate the inhibition rate of the drug on ferroptosis. Generally, the absorbance value of the control group should be between 0.8-1.2 as a normal value. After obtaining the absorbance value data, the average value of wells in triplicate was calculated, and the inhibition rate was calculated using the following formula: […]

EC50: 0.058 µM
SMILES: C=C(c1ccc2c(c1)Nc1ccccc1S2)c1cnc2c(cnn2C)c1 [Compound 28]
